From patent US20180008688A1, “METHOD AND COMPOSITIONS FOR ENHANCING IMMUNOTHERAPEUTIC TREATMENT OF A CANCER” (Augusta University Research Institute, Inc., priority 2016, published 2018)

What was measured:
B16-OVA tumors = assay: RIP-mOVA mice with OT-I cells and B16-OVA tumors, immunotherapy with or without nutlin-3a; assay type: in vivo
Protocol: It was then determined which of these opposing effects would prevail when the same antigen was both a tumor-antigen and self-antigen. RIP-mOVA mice expressing OVA as a self-antigen were implanted with B16-OVA tumors expressing OVA as a tumor antigen (Falo. Jr. et al., (1995) Nat. Med. 1: 649-653). Prior to tumor implantation, all mice received adoptive transfer of congenically-marked OT-I cells. After tumors were established, mice were treated with immunotherapy (PTEN-inhibitor plus chemotherapy), with or without nutlin-3a.
RIP-mOVA mice bearing B16-OVA tumors were treated with a cocktail of blocking antibodies against CTLA-4 plus PD-1, PD-L1 and PD-L2, with or without concurrent nutlin-3a.
Tumor implantation was performed as described (Sharma et al., (2007) J. Clin. Invest. 117: 2570-2582). VO-OHpic was given at 10 mg/kg/day i.p., in 10% DMSO/PBS. Cyclophosphamide was given at 150 mg/kg i.p×1 dose; and oxaliplatin at 5 mg/kg i.p×1 dose. Nutlin-3a was administered daily at 10 mg/kg/day i.p. For checkpoint blockade, mice received anti-CTLA-4 plus a cocktail of antibodies against the PD-1 pathway. Vaccines and T cell adoptive transfer studies were performed as described (Sharma et al., (2015) Sci. Advances. 1: e1500845).
The immune-activating effect of p53 is context-specific for the tumor milieu: The immunogenic effect of nutlin-3a seemed paradoxical because in most settings p53 is thought to be immunosuppressive (Munoz-Fontela et al., (2016) Nat. Rev. lmmunol. 16: 741-750; Thomasova et al., (2012) Neoplasia 14: 1097-1101). It was considered that p53 actually plays two roles in the immune system: a self-tolerance role in normal tissues during physiologic cell death (Yoon et al., (2015) Science 349: 1261669); but a pro-inflammatory role in certain specialized contexts such as immune-surveillance of tumors (Munoz-Fontela et al., (2016) Nat. Rev. lmmunol. 16: 741-750). To test this, a model in which OVA-expressing tumors were implanted in RIP-mOVA mice (which constitutively express OVA in pancreatic islet cells) was used. OVA thus became both a normal tissue antigen and a tumor antigen.

T cells = assay: Purified T cells activated with anti-CD3/CD28 with nutlin, IL-12, MG-132; assay type: cell-based, mouse
From the text: Regulation of p53 is complex, and it can be targeted by multiple pathways besides MDM2 (Chao C. C. (2015) Clin. Chim. Acta 438: 139-147). If IL-12 is rescuing T cells from nutlin, one possibility is that IL-12 might activate an alternative pathway of p53 degradation, not dependent on MDM2. To test this, purified T cells were activated (without any antigen-presenting cells or other cells) using anti-CD3/CD28 antibodies. T cells were activated in the presence or absence of nutlin with or without addition of recombinant IL-12.
Finally, to test the hypothesis that IL-12 targeted p53 for proteolytic degradation via an alternated pathway, proteasomal function was inhibited using MG-132. T cells were activated using immobilized CD3/CD28 as above. […] CFSE proliferation tracked inversely with p53 levels. […] While MG-132 affects many intracellular pathways besides p53, these findings support the basic hypothesis that IL-12 bypasses nutlin by targeting p53 for degradation via an alternative route.

[1] = nutlin added to checkpoint blockade
[2] = nutlin-3a 10 mg/kg/day added to CTX/VO-OHpic, FIG. 13
[3] = nutlin-3a 10 mg/kg/day added to CTX/VO-OHpic, FIG. 13, 10 mg/kg/day
[4] = nutlin, anti-CD3/CD28 activation

## COc1ccc(C2=NC(c3ccc(Cl)cc3)C(c3ccc(Cl)cc3)N2C(=O)N2CCNC(=O)C2)c(OC(C)C)c1 (single isomer, unassigned; (-)) [nutlin-3a, (−)-4-(4,5-Bis(4-chlorophenyl)-2-(2-isopropoxy-4-methoxyphenyl)-4,5-dihydro-1H-imidazole-1-carbonyl)piperazin-2-one]
B16-OVA tumors; [1]
  Ly6c+CD103+ dendritic cells in the tumors: maintained expression
  anti-tumor effect: significantly enhancing and prolonging the anti-tumor effect
B16-OVA tumors; nutlin added to checkpoint blockade (CTLA-4 plus PD-1, PD-L1, PD-L2 antibodies)
  autoimmune diabetes: protected recipient subjects from autoimmune diabetes
B16-OVA tumors; nutlin added to immunotherapy
  p53 in OT-I T cells in pancreatic LNs: increase p53
B16-OVA tumors; nutlin added to immunotherapy, same animals
  p53 in OT-I T cells in TDLNs: complete loss of detectable p53 expression
B16-OVA tumors; [2]
  anti-tumor effect: markedly enhanced the anti-tumor response
  autoimmune diabetes: fully protected from diabetes
B16-OVA tumors; [3]
  anti-tumor effect: enhanced and prolonged
  autoimmune diabetes: protected the mice from lethal autoimmunity
T cells; [4]
  T cell proliferation: suppressed proliferation of T cells
  p53 levels in activated T cells: progressively restored, and then markedly elevated
T cells; nutlin, anti-CD3/CD28 activation, listed as Nutlin
  p53 levels in activated T cells: blocked the down-regulation of p53
T cells; p53-deficient T cells
  effect of nutlin on p53-deficient T cells: no inhibitory effect
